Assays:
[1] = target: Insulin receptor (Homo sapiens) (UniProt P06213); experiment: Inhibition against Insulin receptor kinase at 50 uM
[2] = target: Protein kinase C (PKC) (Homo sapiens) (UniProt O94806+P41743+P17252+P05129+Q05655+P05771+Q05513+Q02156+P24723+Q15139+Q04759); experiment: Inhibition of Protein kinase C at 50 uM; assay type: protein assay
[3] = target: T1, Epidermal growth factor receptor (Homo sapiens, UniProt P00533)
Description: Concentration needed to inhibit the phosphorylation of a 14-residue fragment of phospholipase C-gamma1 by Epidermal growth factor receptor (prepared from human A431 carcinoma cell vesicles by immunoaffinity chromatography)

[4] = target: T1, Epidermal growth factor receptor; experiment: Inhibition of Epidermal growth factor receptor autophosphorylation in A431 cells
[5] = target: Fibroblast growth factor receptor (Homo sapiens) (UniProt P22607+P11362+P22455+P21802); experiment: Inhibition of Fibroblast growth factor receptor at 50 uM; assay type: protein assay
[6] = Inhibition of Platelet-derived growth factor receptor at 50 uM
[7] = target: Proto-oncogene tyrosine-protein kinase Src (Homo sapiens) (UniProt P12931); experiment: Inhibition of c-Src tyrosine kinase at 50 uM
[8] = target: Proto-oncogene tyrosine-protein kinase Src (Homo sapiens) (UniProt P12931); experiment: Inhibition against c-Src tyrosine kinase at 1.25 uM

Proto-oncogene tyrosine-protein kinase Src (Homo sapiens), sequence (P12931 2-536 limits assumed): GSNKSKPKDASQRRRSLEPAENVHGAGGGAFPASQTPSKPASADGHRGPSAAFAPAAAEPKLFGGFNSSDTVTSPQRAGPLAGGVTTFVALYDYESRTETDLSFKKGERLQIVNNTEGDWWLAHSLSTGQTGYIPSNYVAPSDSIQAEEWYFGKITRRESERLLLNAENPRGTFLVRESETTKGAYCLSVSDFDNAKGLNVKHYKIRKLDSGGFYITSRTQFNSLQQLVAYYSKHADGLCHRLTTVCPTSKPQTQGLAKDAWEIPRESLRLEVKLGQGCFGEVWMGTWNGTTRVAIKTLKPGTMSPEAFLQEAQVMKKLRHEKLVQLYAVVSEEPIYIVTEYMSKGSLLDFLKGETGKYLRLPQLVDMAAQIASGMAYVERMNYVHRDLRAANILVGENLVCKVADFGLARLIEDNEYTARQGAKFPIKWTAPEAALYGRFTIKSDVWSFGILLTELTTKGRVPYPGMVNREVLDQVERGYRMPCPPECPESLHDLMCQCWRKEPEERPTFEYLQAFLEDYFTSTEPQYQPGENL
T1 sequence (P00533 whole entry): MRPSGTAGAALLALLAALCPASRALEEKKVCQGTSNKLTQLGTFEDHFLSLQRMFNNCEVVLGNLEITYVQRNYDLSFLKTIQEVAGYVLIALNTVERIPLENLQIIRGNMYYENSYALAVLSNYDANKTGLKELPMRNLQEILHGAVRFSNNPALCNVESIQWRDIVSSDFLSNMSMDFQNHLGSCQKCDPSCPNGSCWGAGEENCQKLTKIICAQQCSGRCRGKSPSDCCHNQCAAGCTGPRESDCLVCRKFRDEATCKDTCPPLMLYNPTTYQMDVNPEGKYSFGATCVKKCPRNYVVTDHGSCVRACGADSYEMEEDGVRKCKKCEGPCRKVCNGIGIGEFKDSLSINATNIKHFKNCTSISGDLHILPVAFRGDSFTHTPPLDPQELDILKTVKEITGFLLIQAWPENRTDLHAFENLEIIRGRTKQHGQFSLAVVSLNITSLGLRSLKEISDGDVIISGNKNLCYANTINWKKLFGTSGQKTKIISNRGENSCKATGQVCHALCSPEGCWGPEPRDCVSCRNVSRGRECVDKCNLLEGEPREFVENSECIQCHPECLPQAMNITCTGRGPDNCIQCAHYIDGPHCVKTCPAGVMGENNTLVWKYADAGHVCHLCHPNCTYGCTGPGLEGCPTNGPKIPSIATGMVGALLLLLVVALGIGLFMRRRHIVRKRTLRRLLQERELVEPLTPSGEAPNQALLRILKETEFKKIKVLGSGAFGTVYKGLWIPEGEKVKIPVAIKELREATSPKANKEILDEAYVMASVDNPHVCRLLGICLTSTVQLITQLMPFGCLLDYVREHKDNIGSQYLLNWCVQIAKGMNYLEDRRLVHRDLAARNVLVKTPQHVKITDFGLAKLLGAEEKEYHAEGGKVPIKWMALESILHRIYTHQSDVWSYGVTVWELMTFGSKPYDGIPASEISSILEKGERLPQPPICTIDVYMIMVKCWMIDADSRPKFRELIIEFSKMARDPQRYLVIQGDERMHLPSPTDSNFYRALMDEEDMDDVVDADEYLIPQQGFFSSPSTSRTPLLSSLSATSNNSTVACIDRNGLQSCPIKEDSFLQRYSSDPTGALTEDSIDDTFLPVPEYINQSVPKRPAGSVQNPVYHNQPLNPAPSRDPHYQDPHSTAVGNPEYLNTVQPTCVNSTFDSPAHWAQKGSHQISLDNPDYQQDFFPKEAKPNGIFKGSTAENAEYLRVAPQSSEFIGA
Fibroblast growth factor receptor (Homo sapiens), sequence (P11362 whole entry, looked up): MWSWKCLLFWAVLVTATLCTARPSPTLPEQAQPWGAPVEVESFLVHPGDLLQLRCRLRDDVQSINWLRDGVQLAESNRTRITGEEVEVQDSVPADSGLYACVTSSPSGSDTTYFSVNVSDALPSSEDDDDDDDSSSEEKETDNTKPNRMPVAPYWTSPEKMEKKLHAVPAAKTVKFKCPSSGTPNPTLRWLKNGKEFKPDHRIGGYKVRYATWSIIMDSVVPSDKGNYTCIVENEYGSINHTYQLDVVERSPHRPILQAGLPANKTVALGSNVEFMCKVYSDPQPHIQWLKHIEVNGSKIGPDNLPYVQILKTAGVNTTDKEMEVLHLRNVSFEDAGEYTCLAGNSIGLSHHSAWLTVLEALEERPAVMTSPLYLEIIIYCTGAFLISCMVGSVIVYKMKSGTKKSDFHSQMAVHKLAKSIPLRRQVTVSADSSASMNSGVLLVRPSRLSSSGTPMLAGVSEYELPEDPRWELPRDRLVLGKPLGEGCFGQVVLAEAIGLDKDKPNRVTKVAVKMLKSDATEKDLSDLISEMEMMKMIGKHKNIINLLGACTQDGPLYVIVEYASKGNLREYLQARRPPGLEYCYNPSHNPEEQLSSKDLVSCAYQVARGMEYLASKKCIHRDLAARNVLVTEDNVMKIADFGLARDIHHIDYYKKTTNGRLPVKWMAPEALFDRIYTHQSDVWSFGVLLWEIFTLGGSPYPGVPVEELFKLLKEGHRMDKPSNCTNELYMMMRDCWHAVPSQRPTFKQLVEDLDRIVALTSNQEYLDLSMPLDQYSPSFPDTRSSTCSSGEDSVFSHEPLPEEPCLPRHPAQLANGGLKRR
Fibroblast growth factor receptor (Homo sapiens), sequence (P21802 whole entry, looked up): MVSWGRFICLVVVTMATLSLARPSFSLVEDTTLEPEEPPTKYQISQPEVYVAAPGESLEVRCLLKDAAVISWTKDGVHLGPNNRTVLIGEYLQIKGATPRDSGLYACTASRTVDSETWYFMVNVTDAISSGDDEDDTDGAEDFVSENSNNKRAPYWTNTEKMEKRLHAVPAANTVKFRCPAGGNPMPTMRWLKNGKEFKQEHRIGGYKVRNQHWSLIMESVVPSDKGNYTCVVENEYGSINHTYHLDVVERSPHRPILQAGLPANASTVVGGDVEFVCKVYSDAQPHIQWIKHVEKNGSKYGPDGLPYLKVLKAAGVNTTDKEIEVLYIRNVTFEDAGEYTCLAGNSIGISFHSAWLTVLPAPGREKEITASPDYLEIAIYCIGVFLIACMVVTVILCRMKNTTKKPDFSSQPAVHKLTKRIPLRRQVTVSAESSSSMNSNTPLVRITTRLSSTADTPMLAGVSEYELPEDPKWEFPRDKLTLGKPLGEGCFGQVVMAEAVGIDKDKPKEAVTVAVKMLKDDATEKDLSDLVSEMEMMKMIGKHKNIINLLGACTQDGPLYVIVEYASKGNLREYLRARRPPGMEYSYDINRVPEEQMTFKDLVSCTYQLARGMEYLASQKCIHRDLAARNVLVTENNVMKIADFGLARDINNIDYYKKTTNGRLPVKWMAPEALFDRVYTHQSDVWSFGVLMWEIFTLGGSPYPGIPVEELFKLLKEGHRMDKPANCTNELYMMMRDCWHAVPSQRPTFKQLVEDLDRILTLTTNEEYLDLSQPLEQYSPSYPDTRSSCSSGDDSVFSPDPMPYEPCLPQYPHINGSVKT
Fibroblast growth factor receptor (Homo sapiens), sequence (P22455 whole entry, looked up): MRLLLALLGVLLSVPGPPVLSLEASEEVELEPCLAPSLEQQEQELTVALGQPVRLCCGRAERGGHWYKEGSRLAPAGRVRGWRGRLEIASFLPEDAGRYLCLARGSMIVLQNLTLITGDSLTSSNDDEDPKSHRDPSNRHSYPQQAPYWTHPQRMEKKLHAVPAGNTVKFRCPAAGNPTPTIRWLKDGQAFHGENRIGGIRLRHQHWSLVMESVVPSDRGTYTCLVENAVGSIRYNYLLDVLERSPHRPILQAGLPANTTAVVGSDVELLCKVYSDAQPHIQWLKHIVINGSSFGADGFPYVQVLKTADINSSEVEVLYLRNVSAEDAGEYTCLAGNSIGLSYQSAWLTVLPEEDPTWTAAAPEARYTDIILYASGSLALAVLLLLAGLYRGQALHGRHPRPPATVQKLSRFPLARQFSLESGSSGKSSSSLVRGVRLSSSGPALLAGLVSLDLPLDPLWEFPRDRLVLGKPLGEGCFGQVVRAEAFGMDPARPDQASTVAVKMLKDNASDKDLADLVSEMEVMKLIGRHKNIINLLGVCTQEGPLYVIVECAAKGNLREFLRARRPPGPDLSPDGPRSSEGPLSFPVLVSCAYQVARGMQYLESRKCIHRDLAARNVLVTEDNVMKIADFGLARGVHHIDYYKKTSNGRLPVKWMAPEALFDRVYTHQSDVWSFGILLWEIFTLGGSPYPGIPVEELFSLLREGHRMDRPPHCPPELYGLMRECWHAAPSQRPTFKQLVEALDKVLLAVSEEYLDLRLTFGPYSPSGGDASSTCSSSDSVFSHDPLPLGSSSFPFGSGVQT
Fibroblast growth factor receptor (Homo sapiens), sequence (P22607 whole entry, looked up): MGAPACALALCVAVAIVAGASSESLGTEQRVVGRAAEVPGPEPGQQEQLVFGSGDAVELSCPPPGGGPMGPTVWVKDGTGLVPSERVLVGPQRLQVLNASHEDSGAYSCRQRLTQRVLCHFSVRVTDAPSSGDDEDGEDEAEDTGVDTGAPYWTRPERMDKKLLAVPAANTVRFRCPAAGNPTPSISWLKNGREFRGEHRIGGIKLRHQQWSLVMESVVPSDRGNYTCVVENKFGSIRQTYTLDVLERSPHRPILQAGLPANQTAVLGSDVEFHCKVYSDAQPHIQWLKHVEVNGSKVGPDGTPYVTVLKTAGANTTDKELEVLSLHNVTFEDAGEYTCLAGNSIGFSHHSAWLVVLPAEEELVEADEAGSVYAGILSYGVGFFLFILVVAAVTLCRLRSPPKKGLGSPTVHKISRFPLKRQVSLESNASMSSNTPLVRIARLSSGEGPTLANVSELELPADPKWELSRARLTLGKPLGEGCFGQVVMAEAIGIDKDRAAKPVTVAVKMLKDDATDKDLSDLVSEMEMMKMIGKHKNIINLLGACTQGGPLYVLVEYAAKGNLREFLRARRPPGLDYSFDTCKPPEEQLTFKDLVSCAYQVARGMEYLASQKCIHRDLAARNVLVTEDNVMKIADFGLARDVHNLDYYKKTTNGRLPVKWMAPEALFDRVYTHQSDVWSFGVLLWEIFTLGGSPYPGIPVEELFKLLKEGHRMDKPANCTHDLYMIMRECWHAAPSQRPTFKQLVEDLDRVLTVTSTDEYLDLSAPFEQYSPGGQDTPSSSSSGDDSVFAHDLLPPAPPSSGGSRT

## Nc1ccc2sc3c(Nc4cccc(Br)c4)ncnc3c2c1
[1]
  inhibition: 0%
[2]
  inhibition: 0%

## Brc1cccc(Nc2ncnc3cc4[nH]ccc4cc23)c1
[3]
  IC50: 0.39 nM

## Nc1nc(Nc2cccc(Br)c2)c2c(n1)[nH]c1ccccc12
[4]
  IC50: 493 nM
[3]
  IC50: 147 nM

## c1ccc(CNc2ncnc3c2sc2ccccc23)cc1
[5]
  inhibition: 11%
[1]
  inhibition: 0%
[6]
  inhibition: 10%
[7]
  inhibition: 0%

## COc1cccc2sc3c(Nc4cccc(Br)c4)ncnc3c12
[3]
  IC50: 20 nM

## Nc1cccc2c1sc1c(Nc3cccc(Br)c3)ncnc12
[3]
  IC50: 2.7 nM

## COc1cc2sc3c(Nc4cccc(Br)c4)ncnc3c2cc1OC
[3]
  IC50: 444 nM

## Brc1cccc(Nc2ncnc3c2sc2ccccc23)c1
[5]
  inhibition: 21%
[1]
  inhibition: 0%
[6]
  inhibition: 0%
[2]
  inhibition: 18%
[7]
  inhibition: 0%

## Brc1cccc(Nc2ncnc3sccc23)c1
[3]
  IC50: 35 nM

## O=[N+]([O-])c1ccc2c(c1)sc1c(Nc3cccc(Br)c3)ncnc12
[3]
  IC50: 48 nM

## C[C@@H](Nc1[nH]cnc2c3ccccc3nc1-2)c1ccccc1
[3]
  IC50: > 100000 nM

## CNc1ccc2sc3c(Nc4cccc(Br)c4)ncnc3c2c1
[4]
  IC50: 33 nM
[3]
  IC50: 1.1 nM

## Nc1ccc2sc3c(Nc4cccc(C(F)(F)F)c4)ncnc3c2c1
[5]
  inhibition: 17%
[1]
  inhibition: 0%
[6]
  inhibition: 12%
[2]
  inhibition: 51%
[7]
  inhibition: 13%
[3]
  IC50: 47 nM

## COc1ccc2c(c1)sc1c(Nc3cccc(Br)c3)ncnc12
[5]
  inhibition: 19%
[1]
  inhibition: 0%
[6]
  inhibition: 21%
[2]
  inhibition: 20%
[7]
  inhibition: 22%

## Cc1cccc(Nc2ncnc3c2sc2ccc([N+](=O)[O-])cc23)c1
[3]
  IC50: 11 nM

## COc1cccc2c1sc1c(Nc3cccc(Br)c3)ncnc12
[3]
  IC50: 12.6 nM

## Nc1cc2sc3c(Nc4cccc(Br)c4)ncnc3c2cc1F
[4]
  IC50: 42 nM
[3]
  IC50: 1 nM

## CN(C)c1ccc2sc3c(Nc4cccc(Br)c4)ncnc3c2c1
[3]
  IC50: 19.8 nM

## Cc1cccc(Nc2cc(NCCO)ncn2)c1
[3]
  IC50: 1 nM

## COc1ccc2[nH]c3ncnc(Nc4cccc(Br)c4)c3c2c1
[4]
  IC50: 13 nM
[5]
  inhibition: 30%
[1]
  inhibition: 0%
[6]
  inhibition: 2%
[3]
  IC50: 1.2 nM
[8]
  inhibition: 8%

## O=[N+]([O-])c1ccc2sc3c(Nc4cccc(C(F)(F)F)c4)ncnc3c2c1
[3]
  IC50: 460 nM

## O=[N+]([O-])c1ccc2sc3c(Nc4ccccc4)ncnc3c2c1
[3]
  IC50: 58 nM

## CN(C)CCNc1[nH]cnc2c3ccccc3nc1-2
[3]
  IC50: > 100000 nM

## c1ccc2c(c1)[nH]c1c(NC3CCCCC3)ncnc12
[3]
  IC50: > 100000 nM

## O=[N+]([O-])c1cccc2c1sc1c(Nc3cccc(Br)c3)ncnc12
[3]
  IC50: 158 nM

## CCNc1cc2sc3c(Nc4cccc(Br)c4)ncnc3c2cc1F
[4]
  IC50: 85 nM
[3]
  IC50: 7.9 nM

## Cc1cccc(Nc2ncnc3c2sc2ccc(N)cc23)c1
[4]
  IC50: 98 nM
[5]
  inhibition: 24%
[1]
  inhibition: 14%
[6]
  inhibition: 17%
[2]
  inhibition: 44%
[7]
  inhibition: 47%
[3]
  IC50: 2.1 nM

## CN(C)CCNc1[nH]cnc2nc3ccccc3c1-2
[3]
  IC50: > 10000 nM

## Nc1ccc2c(c1)sc1c(Nc3cccc(Br)c3)ncnc12
[3]
  IC50: 0.47 nM

## Cc1nc(Nc2cccc(Br)c2)c2c(n1)[nH]c1ccccc12
[3]
  IC50: > 10000 nM

## C[C@H](Nc1ncnc2c1sc1ccccc12)c1ccccc1
[5]
  inhibition: 20%
[1]
  inhibition: 13%
[6]
  inhibition: 0%
[2]
  inhibition: 7%
[7]
  inhibition: 0%
[3]
  IC50: 538 nM

## Cn1c2ccccc2c2c(Nc3cccc(Br)c3)ncnc21
[4]
  IC50: 769 nM
[3]
  IC50: 742 nM

## Clc1cccc(Nc2ncnc3c2sc2ncccc23)c1
[3]
  IC50: > 1000 nM
